The source of these data is US12298297B2, “Visual cell sorting” (University of Washington, priority 2020, dated 2025).

One assay has as its system U-2 OS H3-Dendra2 cells. The experiment in a line: Nucleus-to-cytoplasm (N:C) miRFP ratio of individually expressed NLS variants fused to CMPK-miRFP reporter. In kind it is cell-based, human. As for the experimental part:
FIGS. 3A-3D. Visual Cell Sorting-derived variant scores accurately predict NLS function. (3A) Nine NLS variants were individually expressed in the CMPK-miRFP reporter in U-2 OS H3-Dendra2 cells. The median nucleus to cytoplasm (N:C) ratio of cells expressing each variant was measured by microscope and compared to its localization score derived by Visual Cell Sorting. n≥141 cells per variant per replicate. Bars, mean across at least three separate replicates. (3B) SV40 NLS variants that appeared to enhance nuclear localization were individually tested both alone and in combination. NLS variants with up to three amino acid changes were expressed in U-2 OS H3-Dendra2 cells and imaged; the median N:C ratio was quantified across cells in the same well. n≥527 cells per variant per replicate. […]
A library was based on the SV40 NLS, a 7-residue sequence containing a lysine and arginine-rich region (K/R motif) that was the first NLS to be discovered. […] The degree of nuclear localization was calculated using a nucleus-to-cytoplasm miRFP intensity ratio (N:C ratio; FIG. 9A). […]
Analysis of Metamorph-calculated nucleus and cytoplasm mean intensity values was done using Python (v3.6.5). […] Cells with no miRFP expression were removed with a gate that was determined by examination of the histogram of the mean miRFP intensity values for cells in each well. […]

In another assay the test system is hTERT RPE-1. The experiment in a line: Nuclear shape factor imaging of paclitaxel-treated cells (nuclear lobulation). In kind it is cell-based, human. The following applies: 0.25 nM paclitaxel, 24 hours, RPE-1 NLS-Dendra2×3 cells. As to the method:
FIGS. 4A-4F. Visual Cell Sorting to dissect heterogeneous nuclear morphology following paclitaxel treatment. (4A) RPE-1 NLS-Dendra2×3 cells were treated for 24 hours with 0.25 nM paclitaxel or DMSO and imaged. The shape factor, which measures the degree of an object's circularity, was computed for each nucleus. One normal nucleus with a shape factor near one and one lobulated nucleus with a low shape factor are shown. The computationally determined boundaries of each nucleus are shown in blue; scale bar=10 (4B) Shape factor density plots for vehicle (DMSO) and 0.25 nM paclitaxel-treated RPE-1 cells (n≥3,914 cells per treatment). Dashed line, cutoff for lobulated nuclei (shape factor <0.65). […]
To test whether Visual Cell Sorting enables transcriptomics on cells with distinct image-based phenotypes, single cell RNA sequencing was performed on cells undergoing divergent morphologic responses to paclitaxel. […] Paclitaxel treated cells were then analyzed it was observed that 30% of paclitaxel treated cells had lobulated nuclei, defined by shape factor of less than 0.65 (FIG. 4B).
RPE-1 NLS-Dendra2×3/H2B-miRFP/NES-mBeRFP Clone 3 cells were plated at 50,000 cells per well in a 6-well plate. […] After 30 hours of treatment, cells were placed on the microscope and imaged, analyzed, and activated across 2,204 sites (˜75% coverage, avoided well edges) in 2 wells. […]

Turning to “EPPRKKRKIGI [superNLS, optimized SV40 NLS with three missense variants, fused to the CMPK-miRFP reporter]”, the “increase in nuclear localization compared to the wild-type SV40 NLS (median N:C ratio)” value in the assay with U-2 OS H3-Dendra2 cells stood at 2.3 fold. As to `CC(=O)O[C@H]1C(=O)[C@@]2(C)[C@H]([C@H](OC(=O)c3ccccc3)[C@]3(O)C[C@H](OC(=O)[C@H](O)[C@@H](NC(=O)c4ccccc4)c4ccccc4)C(C)=C1C3(C)C)[C@]1(OC(C)=O)CO[C@@H]1C[C@@H]2O` [paclitaxel], the “cells with lobulated nuclei, defined by shape factor of less than 0.65” value in the assay on hTERT RPE-1 is given as 30%.
